Literature values in US20150037408A1, “Delayed Release Pharmaceutical Compositions of Salsalate” (priority 2012, published 2015).

Experiments:
[1] = 3 grams daily (two 750-mg tablets twice daily) for 15 days
[2] = patients with osteoarthrosis of the hip or knee

For `O=C(Oc1ccccc1C(=O)O)c1ccccc1O` [Salsalate, 2-hydroxybenzoic acid 2-carboxyphenyl ester], the “efficacy and safety in arthritic disease” value [1] is listed as “effective and safe in ameliorating the symptoms of arthritic disease”, the “clinical improvement versus aspirin” value [2] is listed as “comparable clinical improvement to that with aspirin” and the “side-effects and faecal occult blood loss versus aspirin” value [2] is listed as “significantly superior to aspirin”.
